Measurements as given in patent publication US20040254162A1, “Oxazolidinone derivatives as antimicrobials” (priority 2001, published 2004).
Converted amounts (≈) assume the structure as drawn. Like-named read-outs stand apart in the source and are kept apart here.

Columns and labels:
[1] = system: MRSE 879; test: Broth MIC, MRSE 879; type: cell-based; conditions: Staphylococcus epidermidis, MRSE, read-out: broth MIC
[2] = system: MRSA 15187; test: MIC, agar incorporation method; conditions: Staphylococcus aureus, MRSA, read-out: MIC MRSA 15187
[3] = system: Clostridium camis; test: Agar dilution MIC, anaerobes; type: cell-based; conditions: Clostridium, read-out: MIC Clostridium camis
[4] = system: MRSA 33; test: MIC, agar incorporation method; conditions: Staphylococcus aureus, MRSA, read-out: MIC MRSA 33
[5] = system: Clostridium perfringens; test: microbe, parasite or virus in culture; type: cell-based; conditions: Clostridium perfringens, read-out: MIC Clostridium perfringens
[6] = system: S. pneum AB 34; test: MIC, agar incorporation method; conditions: Streptococcus pneumoniae, AB34, read-out: MIC S. pneum AB 34
[7] = system: MRSA 562; test: In vivo activity against MRSA 562 (ED50); set-up: species or system Methicillin Resistant Staphylococcus aureus; conditions: IV; MRSA 562 infection
[8] = system: Peptostreptococcus tetradius; test: Agar dilution MIC, anaerobes; type: cell-based; conditions: Anaerococcus tetradius, read-out: MIC Peptostreptococcus tetradius
[9] = system: anaerobic bacteria; test: Agar dilution method for anaerobic bacteria, summary; type: cell-based
[10] = system: Porphyromonas gingivalis; test: Agar dilution MIC, anaerobes; type: cell-based; conditions: Porphyromonas gingivalis, read-out: MIC Porphyromonas gingivalis
[11] = system: S. pneumoniae; test: Summary of in vitro activity (MIC); conditions: Streptococcus pneumoniae
[12] = system: Prevotella intermedia; test: Agar dilution MIC, anaerobes; type: cell-based; conditions: Prevotella intermedia, read-out: MIC Prevotella intermedia
[13] = system: G +ve bacteria; test: Summary of in vitro activity (MIC)
[14] = system: Prevotella bivia; test: Agar dilution MIC, anaerobes; type: cell-based; conditions: Prevotella bivia, read-out: MIC Prevotella bivia
[15] = system: Clostridium difficile; test: Agar dilution MIC, anaerobes; type: cell-based
[16] = system: Fusobacterium nucleatum; test: Agar dilution MIC, anaerobes; type: cell-based; conditions: Fusobacterium nucleatum, read-out: MIC Fusobacterium nucleatum
[17] = system: Eubacterium leutum; test: Agar dilution MIC, anaerobes; type: cell-based; conditions: Eubacterium, read-out: MIC Eubacterium leutum
[18] = system: MRSA 562; test: MIC, agar incorporation method; conditions: Staphylococcus aureus, MRSA
[19] = system: Fusobacterium montiferum; test: Agar dilution MIC, anaerobes; type: cell-based; conditions: Fusobacterium, read-out: MIC Fusobacterium montiferum
[20] = system: Porphyromonas asaccharolytica; test: Agar dilution MIC, anaerobes; type: cell-based; conditions: Porphyromonas asaccharolytica, read-out: MIC Porphyromonas asaccharolytica
[21] = system: Ent. faecalis ATCC 29212; test: MIC, agar incorporation method; conditions: Enterococcus faecalis, ATCC29212, read-out: MIC E. faecalis 29212
[22] = system: E. faecalis; test: Summary of in vitro activity (MIC); conditions: Enterococcus faecalis
[23] = system: Prevotella melaninogenica; test: Agar dilution MIC, anaerobes; type: cell-based; conditions: Prevotella melaninogenica, read-out: MIC Prevotella melaninogenica
[24] = system: Fusobacterium varium; test: Agar dilution MIC, anaerobes; type: cell-based; conditions: Fusobacterium varium, read-out: MIC Fusobacterium varium
[25] = system: Peptostreptococcus magnum; test: Agar dilution MIC, anaerobes; type: cell-based
[26] = Changes in MIC under different conditions: broth MIC; type: cell-based; conditions: strain not given
[27] = system: Peptostreptococcus micros; test: Agar dilution MIC, anaerobes; type: cell-based; conditions: Parvimonas micra, read-out: MIC Peptostreptococcus micros
[28] = system: VRE 6A (Ent. faecium 6A); test: MIC, agar incorporation method; conditions: Enterococcus, VRE, read-out: MIC VRE 6A
[29] = system: Strep. pne. ATCC 6303; test: MIC, agar incorporation method; conditions: Streptococcus pneumoniae, ATCC6303, read-out: MIC S. pneum 6303
[30] = system: Fusobacterium necrogenes; test: Agar dilution MIC, anaerobes; type: cell-based; conditions: Fusobacterium necrogenes, read-out: MIC Fusobacterium necrogenes
[31] = system: Strep. pyog. ATCC 19615; test: MIC, agar incorporation method; conditions: Streptococcus pyogenes, ATCC19615, read-out: MIC S. pyogenes 19615
[32] = system: S. aureus; test: Summary of in vitro activity (MIC); conditions: Staphylococcus aureus
[33] = system: Prevotella (Bacteroides) disiens; test: Agar dilution MIC, anaerobes; type: cell-based; conditions: read-out: MIC Prevotella (Bacteroides) disiens
[34] = system: Bacteroides fragilis; test: Agar dilution MIC, anaerobes; type: cell-based; conditions: Bacteroides fragilis, read-out: MIC Bacteroides fragilis
[35] = system: MRSE 879 adherent bacteria; test: Sintered glass adherent bacteria model; conditions: MRSE 879, sintered glass adherent bacteria model
[36] = system: Peptostreptococcus prevotii; test: Agar dilution MIC, anaerobes; type: cell-based; conditions: Anaerococcus prevotii, read-out: MIC Peptostreptococcus prevotii
[37] = Changes in MIC under different conditions: agar MIC; type: cell-based; conditions: strain not given
[38] = system: P. acnes; test: Agar dilution MIC, anaerobes; type: cell-based
[39] = single isolates, anaerobic agar dilution

CN[C@H](CC(C)C)C(=O)N[C@H]1C(=O)N[C@@H](CC(N)=O)C(=O)N[C@H]2C(=O)N[C@H]3C(=O)N[C@H](C(=O)N[C@H](C(=O)O)c4cc(O)cc(O)c4-c4cc3ccc4O)[C@H](O)c3ccc(c(Cl)c3)Oc3cc2cc(c3O[C@@H]2O[C@H](CO)[C@@H](O)[C@H](O)[C@H]2O[C@H]2C[C@](C)(N)[C@H](O)[C@H](C)O2)Oc2ccc(cc2Cl)[C@H]1O [Vancomycin]
MIC [1]: 1 µg/mL (≈ 0.69 µM)
MIC [2]: 0.5 µg/mL (≈ 0.345 µM)
MIC [3]: 2 µg/mL (≈ 1.38 µM)
MIC [4]: 0.5 µg/mL (≈ 0.345 µM)
MIC [5]: 0.5 µg/mL (≈ 0.345 µM)
MIC [6]: 0.25 µg/mL (≈ 0.173 µM)
ED50 (mg/kg body weight) [7]: 8.84 (IV) mg/kg body weight
MIC [8]: 1 µg/mL (≈ 0.69 µM)
MIC50 ([9]; 48 h): 32 µg/mL (≈ 22.1 µM)
MIC90 ([9]; 48 h): 32 µg/mL (≈ 22.1 µM)
Geometric Mean ([9]; anaerobes): 9.306 µg/mL
MIC Range ([9]; anaerobes): 0.5 to 32 µg/mL
MIC [10]: 8 µg/mL (≈ 5.52 µM)
MIC50 [11]: 0.5 µg/mL (≈ 0.345 µM)
MIC90 [11]: 0.5 µg/mL (≈ 0.345 µM)
MIC ([11]; read-out: Geometric Mean of in vitro activity (MIC)): 0.39 µg/mL (≈ 0.269 µM)
MIC [12]: > 16 µg/mL
MIC50 [13]: 0.5 µg/mL (≈ 0.345 µM)
MIC90 [13]: 16 µg/mL (≈ 11 µM)
MIC [14]: > 16 µg/mL
MIC ([15]; Clostridioides difficile, read-out: MIC Clostridium difficile, single isolates, anaerobic agar dilution): 2 µg/mL (≈ 1.38 µM)
MIC Clostridium difficile [15, 39]: 4 µg/mL (≈ 2.76 µM)
MIC [16]: > 16 µg/mL
MIC [17]: 1 µg/mL (≈ 0.69 µM)
MIC [18]: 0.5 µg/mL (≈ 0.345 µM)
MIC ([18]; read-out: MIC MRSA 562): 0.5 µg/mL (≈ 0.345 µM)
MIC [19]: > 16 µg/mL
MIC [20]: 2 µg/mL (≈ 1.38 µM)
MIC [21]: 4 µg/mL (≈ 2.76 µM)
MIC50 [22]: 16 µg/mL (≈ 11 µM)
MIC90 [22]: 16 µg/mL (≈ 11 µM)
MIC [23]: > 16 µg/mL
MIC [24]: > 16 µg/mL
MIC ([25]; Peptostreptococcus, read-out: MIC Peptostreptococcus magnum, single isolates, anaerobic agar dilution): 0.5 µg/mL (≈ 0.345 µM)
MIC Peptostreptococcus magnum [25, 39]: 0.25 µg/mL (≈ 0.173 µM)
Broth MIC +50% Sheep serum ([26]; +50% sheep serum): 1 µg/mL
Broth MIC Normal MH broth ([26]; normal MH broth): 1 µg/mL
MIC [27]: 1 µg/mL (≈ 0.69 µM)
MIC [28]: > 16 µg/mL
MIC [29]: 0.5 µg/mL (≈ 0.345 µM)
MIC [30]: > 16 µg/mL
MIC [31]: 0.5 µg/mL (≈ 0.345 µM)
MIC50 [32]: 1 µg/mL (≈ 0.69 µM)
MIC90 [32]: 1 µg/mL (≈ 0.69 µM)
MIC [33]: > 16 µg/mL
MIC [34]: > 16 µg/mL
concentration which would kill adherent bacteria [35]: 8 µg/mL
MIC [36]: 0.125 µg/mL (≈ 0.0863 µM)
Agar MIC [37]: 1 µg/mL
MIC ([38]; Cutibacterium acnes, read-out: MIC P. acnes, single isolates, anaerobic agar dilution): 0.5 µg/mL (≈ 0.345 µM)
MIC P. acnes [38, 39]: 1 µg/mL (≈ 0.69 µM)
